Assay results: article PMC6009867, “Microwave-assisted synthesis and bioevaluation of new sulfonamides” (Journal of Enzyme Inhibition and Medicinal Chemistry, 2017)

Assays:
[1] = test system: Ca9-22 (human oral squamous cell carcinoma, gingiva); assay: Cytotoxicity assay (MTT), Ca9-22 cells; assay type: cell-based; settings: for TS (C/A): CC50 HGF / CC50 Ca9-22; for times of potency versus 5-FU toward Ca9-22: CC50 ratio to reference 5-FU; for CC50: Homo sapiens, Ca9-22, 48 h, MTT, triplicate wells; for SI Ca9-22: average CC50 of nonmalignant cells / CC50 toward Ca9-22
Procedure: (§1) The cytotoxicity of the compounds were assayed toward human oral squamous cell carcinoma cell lines derived from gingiva tissue (CA9–22) and tongue (HSC-2, HSC-3, HSC-4), and human normal oral cells (gingival fibroblasts, HGF; periodontal ligament fibroblasts, HPLF; pulp cells, HPC) with some minor modifications[16]^,[17]^,[26]^,[30–33]. In brief, cells were cultured in DMEM supplemented with 10% fetal bovine serum (FBS). Cells (2.5 × 10^3 cells/well) were inoculated and incubated for 48 h to achieve complete adherence. Near confluent cells were incubated for a further 48 h in the fresh culture medium containing each test compound (3.12, 6.25, 12.5, 25, 50, 100, 200, 400 μM) or 5-FU (positive control) (7.8, 15.6, 31.2, 62.5, 125, 250, 500, 1000 μM). The viable cell numbers were determined by the MTT method. Cytotoxicity induced by DMSO (0.0078, 0.0156, 0.03125, 0.0625, 0.125, 0.25, 0.5 or 1%) was subtracted from each well. The CC50 values were determined from the dose-response curves. The tumor selectivity (TS) was calculated by the following equation: TS = mean CC50 against normal cells/mean CC50 against cancer cells [shown as (D/B) or (C/A) in Table 1]. A potency selectivity expression (PSE) was calculated by multiplying the reciprocal of average CC50 values toward cancer cell lines and the average SI values toward these cell lines and expressed as a percentage [PSE = (D/B^2) × 100].

hCA II = hCA II (Homo sapiens, UniProt P00918); assay: Carbonic anhydrase inhibition assay (esterase activity, 348 nm), hCA II; assay type: biochemical; settings: for Ki: Lineweaver-Burk, three concentrations; for IC50: from activity (%) versus compound plots; for times more potent than AZA toward hCA II: in terms of IC50 values
[2] = Cytotoxicity assay (MTT), mean over three normal oral cells; assay type: cell-based; settings: human; mean of HGF, HPLF, HPC; read-out: (D) Mean CC50, human normal oral cells
Procedure: as §1

hCA I = hCA I (Homo sapiens, UniProt P00915); assay: Carbonic anhydrase inhibition assay (esterase activity, 348 nm), hCA I; assay type: biochemical; settings: for Ki: Lineweaver-Burk, three concentrations; for IC50: from activity (%) versus compound plots; for times more potent than AZA toward hCA I: in terms of IC50 values
[3] = test system: HSC-4 (human oral squamous cell carcinoma, tongue); assay: Cytotoxicity assay (MTT), HSC-4 cells; assay type: cell-based; settings: for CC50: Homo sapiens, HSC-4, 48 h, MTT; for SI HSC-4: average CC50 of nonmalignant cells / CC50 toward HSC-4
Procedure: as §1

[4] = Cytotoxicity assay (MTT), HPC cells; assay type: cell-based; settings: human, pulp cells (HPC), normal oral cells
Procedure: as §1

[5] = test system: Human oral squamous cell carcinoma cells; assay: Cytotoxicity assay (MTT), mean over four OSCC cell lines; assay type: cell-based; settings: for CC50: Homo sapiens, mean of Ca9-22, HSC-2, HSC-3, HSC-4, read-out: (B) Mean CC50, human oral squamous cell carcinoma cells; for TS (D/B): mean CC50 normal cells / mean CC50 OSCC cells; for PSE (D/B^2) × 100: potency selectivity expression, expressed as a percentage
Procedure: as §1

[6] = Cytotoxicity assay (MTT), HGF cells; assay type: cell-based; settings: human, gingival fibroblasts (HGF), normal oral cells
Procedure: as §1

[7] = Cytotoxicity assay (MTT), HPLF cells; assay type: cell-based; settings: human, periodontal ligament fibroblasts (HPLF), normal oral cells
Procedure: as §1

[8] = test system: HSC-3 (human oral squamous cell carcinoma, tongue); assay: Cytotoxicity assay (MTT), HSC-3 cells; assay type: cell-based; settings: for CC50: Homo sapiens, HSC-3, 48 h, MTT; for SI HSC-3: average CC50 of nonmalignant cells / CC50 toward HSC-3
Procedure: as §1

[9] = test system: HSC-2 (human oral squamous cell carcinoma, tongue); assay: Cytotoxicity assay (MTT), HSC-2 cells; assay type: cell-based; settings: for times of potency versus 5-FU toward HSC-2: CC50 ratio to reference 5-FU; for CC50: Homo sapiens, HSC-2, 48 h, MTT; for SI HSC-2: average CC50 of nonmalignant cells / CC50 toward HSC-2
Procedure: as §1

Sequence of hCA I (P00915 whole entry): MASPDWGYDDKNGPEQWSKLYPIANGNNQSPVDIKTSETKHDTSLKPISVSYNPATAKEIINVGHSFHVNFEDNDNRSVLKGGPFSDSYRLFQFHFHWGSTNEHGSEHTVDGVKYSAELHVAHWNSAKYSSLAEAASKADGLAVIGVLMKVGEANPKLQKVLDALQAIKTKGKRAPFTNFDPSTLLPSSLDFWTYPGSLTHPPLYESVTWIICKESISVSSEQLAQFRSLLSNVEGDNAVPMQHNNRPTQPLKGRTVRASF

Row | Structure (SMILES) | TS (C/A) [1] | times of potency versus 5-FU toward Ca9-22 [1] | CC50 [1] | SI Ca9-22 [1] | Ki (hCA II) | IC50 (hCA II) | times more potent than AZA toward hCA II (hCA II) | CC50 at 48 h [2] | Ki (hCA I) | CC50 [3] | CC50 at 48 h [4] | CC50 [5] | TS (D/B) [5] | PSE (D/B^2) × 100 [5] | CC50 at 48 h [6] | CC50 at 48 h [7] | CC50 [8] | SI HSC-3 [8] | CC50 [9] | SI HSC-2 [9] | other results
1 | Cc1ccc(C2=NN(c3ccc(S(N)(=O)=O)cc3)C(c3ccc(O)cc3)C2)cc1 (stereo not shown) [Compound 9, 4-[5-(4-Hydroxyphenyl)-3-(4-methylphenyl)-4,5-dihydro-1H-pyrazol-1-yl]benzene sulfonamide] | 1.7 | 3.9 | 25.7 µM | 1.7 | 0.00748 ± 0.00252 µM | 0.00563 µM | 35.5 | 44.2 µM | 0.00459 ± 0.00125 µM | 31.7 µM | 49.7 µM | 32.6 µM | 1.4 | 4.2 | 43.7 µM | 39.3 µM | 39.7 µM | 1.1 | 33.3 µM | 1.3 | IC50 (hCA I): 0.00529 µM; times more potent than AZA toward hCA I (hCA I): 35.9; SI HSC-4 [3]: 1.4; times of potency versus 5-FU toward HSC-2 [9]: 1.4
2 | COc1ccc(C2=NN(c3ccc(S(N)(=O)=O)cc3)C(c3ccc(O)cc3)C2)cc1 (stereo not shown) [Compound 10, 4-[5-(4-Hydroxyphenyl)-3-(4-methoxyphenyl)-4,5-dihydro-1H-pyrazol-1-yl] benzenesulfonamide] | 1.3 | 2.7 | 37.7 µM | 1.3 | 0.00507 ± 0.00169 µM | 0.00537 µM | 37.1 | 50.8 µM | 0.00399 ± 0.0009 µM | 40.7 µM | 61 µM | 47.7 µM | 1.1 | 2.2 | 47.3 µM | 44 µM | 47 µM | 1.1 | 65.3 µM | 0.8 | IC50 (hCA I): 0.00484 µM; times more potent than AZA toward hCA I (hCA I): 39.3; SI HSC-4 [3]: 1.2
3 | NS(=O)(=O)c1ccc(N2N=C(c3ccccc3)CC2c2ccc(O)cc2)cc1 (stereo not shown) [Compound 8, 4-[5-(4-Hydroxyphenyl)-3-phenyl-4,5-dihydro-1H-pyrazol-1-yl]benzenesulfonamide] | 2.0 | 2.4 | 42 µM | 1.8 | 0.00459 ± 0.00083 µM | 0.00495 µM | 40.3 | 75.9 µM | 0.00484 ± 0.00078 µM | 50.3 µM | 88.3 µM | 56.4 µM | 1.3 | 2.3 | 85 µM | 54.3 µM | 66.3 µM | 1.1 | 67 µM | 1.1 | IC50 (hCA I): 0.00481 µM; times more potent than AZA toward hCA I (hCA I): 39.5; SI HSC-4 [3]: 1.5
4 | NS(=O)(=O)c1ccc(N2N=C(c3ccc(F)cc3)CC2c2ccc(O)cc2)cc1 (stereo not shown) [Compound 11, 4-[5-(4-Hydroxyphenyl)-3-(4-fluorophenyl)-4,5-dihydro-1H-pyrazol-1-yl] benzenesulfonamide] | 1.8 | 2.8 | 36.3 µM | 1.6 | 0.00453 ± 0.00075 µM | 0.00572 µM | 34.9 | 59.1 µM | 0.0051 ± 0.00117 µM | 39.3 µM | 67.7 µM | 41.3 µM | 1.4 | 3.5 | 66.7 µM | 43 µM | 43.3 µM | 1.4 | 46.3 µM | 1.3 | IC50 (hCA I): 0.00568 µM; times more potent than AZA toward hCA I (hCA I): 33.5; SI HSC-4 [3]: 1.5; times of potency versus 5-FU toward HSC-2 [9]: 1.0
5 | NS(=O)(=O)c1ccc(N2N=C(c3ccc(Cl)cc3)CC2c2ccc(O)cc2)cc1 (stereo not shown) [Compound 12, 4-[5-(4-Hydroxyphenyl)-3-(4-chlorophenyl)-4,5-dihydro-1H-pyrazol-1-yl] benzenesulfonamide] | 2.0 | 4.5 | 22.3 µM | 2.0 | 0.00406 ± 0.0006 µM | 0.00425 µM | 46.9 | 44.3 µM | 0.00449 ± 0.00067 µM | 31.3 µM | 50.7 µM | 32.8 µM | 1.4 | 4.1 | 44 µM | 38.3 µM | 38.3 µM | 1.2 | 39 µM | 1.1 | IC50 (hCA I): 0.00491 µM; times more potent than AZA toward hCA I (hCA I): 38.7; SI HSC-4 [3]: 1.4; times of potency versus 5-FU toward HSC-2 [9]: 1.2
6 | O=c1[nH]cc(F)c(=O)[nH]1 [Compound 5-FU, 5-Fluorouracil, reference compound] | >10.0 | – | 100 µM | >167.3 | – | – | – | > 736 µM | – | 17.3 µM | > 1000 µM | 47.6 µM | >15.5 | >32.6 | > 1000 µM | 208 µM | 27.3 µM | >71.5 | 45.7 µM | >16.1 | –
